The term MIC denotes the lowest concentration that inhibits growth of the organism. Low values mean greater potency, high ones weaker potency.

≈ marks a conversion by molar mass, not a printed value.

The test system of assay [1] is Mycobacterium tuberculosis. Description: Antimycobacterial activity against Mycobacterium bovis BCG after 2 weeks. Conditions: variant bovis BCG, 336 h. It counts as functional.
Assay [2] has as its system Mycobacterium tuberculosis. Description: Antimycobacterial activity against Mycobacterium bovis BCG overexpressing InhA after 2 weeks. The conditions noted are these: variant bovis BCG, 336 h. It counts as functional.
Assay [3] has as its system Mycobacterium tuberculosis. Description: Ratio of MIC for Mycobacterium bovis BCG overexpressing InhA to MIC for Mycobacterium bovis BCG. The class given is functional, variant bovis BCG.

`Cc1cc(C)n(Cc2ccc(C(=O)NCC3(c4nc(-c5ccccc5)cs4)CCOCC3)cc2)n1`: the values for the minimum inhibitory concentration (MIC) in assay [1] and in assay [2] were 7.8 µg/mL (≈ 16 µM) and 31.3 µg/mL (≈ 64.3 µM), respectively. In addition, the Ratio in assay [3] worked out at 4.
The corresponding values for `NNC(=O)c1ccncc1` [ISONIAZID] are 0.75 µg/mL (≈ 5.47 µM), over 16 µg/mL and over 21.
The corresponding values for `NC[C@H]1O[C@H](O[C@H]2[C@H](O)[C@@H](O[C@H]3O[C@H](CO)[C@@H](O)[C@H](N)[C@H]3O)[C@H](N)C[C@@H]2N)[C@H](O)[C@@H](O)[C@@H]1O` [KANAMYCIN] are 0.6 µg/mL (≈ 1.24 µM), 0.6 µg/mL (≈ 1.24 µM) and 1.
